Test results as given in article PMC11219860, “A chemogenetic approach for dopamine imaging with tunable sensitivity” (Nature Communications, 2024).

Assays:
[1] = test system: dLight1.3b; assay: In vivo photometry of optogenetically-evoked DA release in PFC; parameters: species or system mouse; conditions: DETQ 10 mg/kg i.p.
Experimental: Fiber photometry combined with optogenetics was conducted using a RZ10X LUX-I/O Processor with integrated LEDs (Tucker-Davis Technologies) combined with a filter/mirror minicube set (FMC6_IE(400-410)_E1(467-497)_F1(507-554)_E2(566-586)_F2(600-680)_S) (Doric Lenses). […] Low-autofluorescence patch cords (400 µm/0.57 NA, Doric) were attached to the optic fibers (400 µm/0.66 NA, Doric) on the mouse’s head to collect fluorescence emissions. Signals were filtered through 500–540 nm GFP emission filters coupled to a photodetector on the RZ10X. […] Data were sampled at 1017.3 Hz. […] For optogenetic stimulation, a 635 nm LED was passed through the 580–680 nm minicube F2 port and reached the mouse through the same unique optic fiber; the LED was driven at 1 to 3 mW. To determine the ‘temporal window for stable imaging’ in the PFC using dLight1.3b recordings, DAT^IREScre mice expressing ChrimsonR in VTA DA axons and dLight1.3b in the PFC were injected i.p. with vehicle at 0 min, followed by DETQ (10 mg/kg) 25 min later. After each injection, PFC DA axons were optically (opto) activated across 5 trials (2 s, 20 Hz, 20-ms pulses) for the vehicle (20 min) and […] for DETQ (1h05 min) every 5 min. DA release was measured with fiber photometry. In another session, the same mice were injected with Veh, then DETQ (10 mg/kg) 20 min later, then cocaine (20 mg/kg) 25 min later, and the same optogenetic protocol was applied (2 s, 20 Hz, 20-ms pulses every 5 min). For optogenetic validation of AlloLite-ctr in the NAc, DAT^IREScre mice expressing ChrimsonR in VTA DA axons were injected i.p. with vehicle (Day 1) or DETQ (10 mg/kg) (Day 8) at 0 min, followed by cocaine (20 mg/kg) 20 min later. After each injection, NAc DA axons were optically (opto) activated across 3 trials (2 s, 20 Hz, 20-ms pulses) every 5 min and DA released measured with fiber photometry. […] After each injection, NAc DA axons were optically (opto) inhibited (10 s, continuous trials) every 3 min (8 trials/condition) and DA released measured with fiber photometry. […] DA release was measured with fiber photometry.
For long-term recordings during optogenetic stimulation or chemogenetic inhibition linear fit was calculated across the entire recording or across the vehicle epoch; for event-related experiments fit was performed on fluorescent data obtained in the −60 to +60 s around opto events or −5 to −1 s around behavioral events. […] DA event-related responses were quantified by computing the value at the transient’s peak value and the AUC in the 0 to 10 s or 0 to 60 s period post-event onset. […] The maximal peak value of Veh-normalized ΔF/F0 after opto-onset was plotted over time and the plateau of maximal response was determined by averaging peak opto responses 5, 10, 15 and 20 min post-DETQ. […]

[2] = test system: dLight1.3b; assay: Multi-fiber photometry of dLight1.3b across brain regions; type: in vivo, mouse; conditions: mean ± SEM
From the text: We used a light emitting diode (LED, M470L5 Thorlabs) at the 470-nm central wavelength for excitation of dLight1.3b. To achieve stable continuous operation, LEDs were run at 80% of maximal output power corresponding to an excitation power of ~1 mW/mm^2 per fiber channel. LED light was collimated with the 16 mm condenser lens (ACL25416U-A, Thorlabs). A microscope objective (TL4x-SAP; Thorlabs) coupled excitation light into the respective array of 12-fibers (Sylex). A dichroic beamsplitter (F58-486 dual line, AHF) coupled the excitation light into the objective (TL4x-SAP, Thorlabs) and transmitted the fluorescence in the dLight1.3b emission spectral window. To separate fluorescence signals from residuals of the excitation light and to minimize auto-fluorescence generated in a broader spectral range we used an emission filter (525/50 nm, F37-516, AHF, for dLight1.3b). To image the end face of the fiber array onto the camera we used a 100-mm focal tube lens (TTL100-A, Thorlabs). […]
Fluorescence signals were expressed as percentage ΔF/F0 relative to the fluorescence baseline. The fluorescence baseline was defined as the minimal level of the signal after subtracting the auto-fluorescence baseline, that is the level of fluorescence estimated prior to the mouse connection. Because in our experiment we wanted to estimate the slow DETQ decay times, we fitted the second-order polynomial trend to the recorded fluorescence signals. […] In all measured traces we visually verified the quality of fit. […] To analyse the ΔF/F0 temporal dynamics at multiple temporal scales separately, we decomposed the fluorescence traces with the wavelet transform (cwt function, MATLAB). We separately analysed measurement traces (30 min before and 30 min after the injection). […] After we compared across independent channels and mice contribution of various temporal scales (in the range of 1−30 seconds) to the recorded ΔF/F0. […] To compare the temporal scales recorded before and after the DETQ injection, during the same session, we used a non-parametric Wilcoxon signed-rank test.

C[C@H]1c2cccc(C(C)(C)O)c2C[C@H](CO)N1C(=O)Cc1c(Cl)cccc1Cl [DETQ, 2-(2,6-dichlorophenyl)-1-((1S,3R)-3-(hydroxymethyl)-5-(2-hydroxypropan-2-yl)-1-methyl-3,4-dihydroisoquinolin-2(1H)-yl)ethan-1-one]
duration of stable increase in DA sensitivity [1]: 31 min
opto-evoked DA signal amplitude [1]: clear and significant increase
opto-evoked DA signal decay time [1]: clear and significant increase
peak ΔF/F0 fluorescence ([2]; CPu): 28.3 ± 6.27%
peak ΔF/F0 fluorescence ([2]; NAc): 22.3 ± 6.11%
peak ΔF/F0 fluorescence ([2]; PFC): 6.8 ± 2.39%
